Measurements published in patent US20240059698A1 (Accutar Biotechnology Inc., priority 2022, published 2024).

Experiments:
[1] = test system: HCC827-YVMA cells (human ERBB2 exon20 insertion mutant A775_G776ins YVMA); experiment: Cell growth inhibition (CellTiter-Glo), HCC827-YVMA; format: cell-based; conditions: 72 h, HCC827-YVMA cells, 3 days, CellTiter-Glo, read-out: Cell growth inhibition, GI50 (nM) HCC827-YVMA
Protocol: (§1) Generation of HCC827-SVD, HCC827-ASV, and HCC827-YVMA cell lines. The HCC827-SVD cell line was generated by first transducing HCC827 cells (ATCC) with lentiviral particles expressing codon-optimized human EGFR exon 20 insertion mutant D770_N771insSVD, and then selecting under 5 µg/mL puromycin treatment for a week. The resulting cells were further transduced with lentiviral particles carrying EGFR sgRNA and CAS9 to knockout the endogenous alleles of EGER and then selected under 500 µg/mL hygromycin B treatment for two weeks. The limiting dilution approach was used to subsequently generate the single clone of the HCC827-SVD stable cell line. Endogenous EGFR knockout was confirmed by Sanger sequencing of cell genomic DNA, and expression of exogenous mutant EGFR was verified by Western blot analysis.
HCC827-ASV and HCC827-YVMA cell lines were generated in a similar approach as HCC827-SVD, except that HCC827 cells (ATCC) were first transduced with lentiviral particles expressing codon-optimized human EGFR exon 20 insertion mutant V769_D770insASV and human ERBB2 exon20 insertion mutant A775_G776ins YVMA, respectively.
(§2) 2. Cell Growth Inhibition for HCC827, HCC827-SVD, HCC827-ASV, HCC827-YVMA, and A431.
(§3) HCC827(ATCC), HCC827-SVD, HCC827-ASV, and HCC827-YVMA cells were seeded in 96-well plates at 5000 cells/well in 90 μL of RPMI growth medium containing 10% FBS and 1% Penicillin Streptomycin. A431 (ATCC) cells were seeded in 96-well plates at 5000 cells/well in 90 μL of DMEM growth medium containing 10% FBS and 1% Penicillin Streptomycin. Cells were incubated at 37° C. overnight and then administered with 10 μL 10× test compounds prepared in the growth medium at various concentrations. After administration of the compounds, cells were incubated at 37° C. for 3 days. Before the CellTiter-Glo assay, the plates were equilibrated at room temperature for approximately 30 minutes. 100 ul of CellTiter-Glo reagent (Promega) was added to each well. The plates were then incubated at room temperature for 10 minutes and luminescence was recorded by the EnSight® multimode plate reader (PerkinElmer). Table 7 listed selected compounds in cellular growth assay.

[2] = test system: HCC827-SVD cells (human EGFR exon 20 insertion mutant D770_N771insSVD); experiment: Cell growth inhibition (CellTiter-Glo), HCC827-SVD; format: cell-based; conditions: 72 h, 3 days
Protocol: as §1, §2, §3

Structure (SMILES): C=CC(=O)N1CCC(c2c[nH]c3ncnc(Nc4ccc(Oc5ccnc(-c6cccc(C(F)(F)F)c6)c5)cc4F)c23)CC1 [Compound 53, 1-(4-(4-((2-fluoro-4-((2-(3-(trifluoromethyl)phenyl)pyridin-4-yl)oxy)phenyl)amino)-7H-pyrrolo[2,3-d]pyrimidin-5-yl)piperidin-1-yl)prop-2-en-1-one]
- GI50 [1]: 200 to 1000 nM
- GI50 [2]: 200 to 1000 nM

Structure (SMILES): C=CC(=O)N1CCC(c2c[nH]c3ncnc(Nc4ccc(CN(C)c5cnccn5)c(Cl)c4)c23)CC1 [Compound 54, 1-(4-(4-((3-chloro-4-((methyl(pyrazin-2-yl)amino)methyl)phenyl)amino)-7H-pyrrolo[2,3-d]pyrimidin-5-yl)piperidin-1-yl)prop-2-en-1-one]
- GI50 [1]: < 50 nM
- GI50 [2]: < 50 nM

Structure (SMILES): C=CC(=O)N1CCC(c2c[nH]c3ncnc(Nc4ccc(OCC(=O)NC(C)C)c(Cl)c4)c23)CC1 [Compound 55, 2-(4-((5-(1-acryloylpiperidin-4-yl)-7H-pyrrolo[2,3-d]pyrimidin-4-yl)amino)-2-chlorophenoxy)-N-isopropylacetamide]
- GI50 [1]: < 50 nM
- GI50 [2]: < 50 nM

Structure (SMILES): C=CC(=O)N1CCC(c2c[nH]c3ncnc(Nc4ccc(Oc5ccnc(NC6(C)CC6)c5)cc4F)c23)CC1 [Compound 56, 1-(4-(4-((2-fluoro-4-((2-((1-methylcyclopropyl)amino)pyridin-4-yl)oxy)phenyl)amino)-7H-pyrrolo[2,3-d]pyrimidin-5-yl)piperidin-1-yl)prop-2-en-1-one]
- GI50 [1]: 200 to 1000 nM
- GI50 [2]: 200 to 1000 nM

Structure (SMILES): C=CC(=O)N1CCC(c2c[nH]c3ncnc(Nc4ccc(Oc5ccnc(N6CCC(C)(F)C6)c5)cc4F)c23)CC1 (stereo not drawn) [Compound 57, 1-[4-[4-[2-fluoro-4-[[2-(3-fluoro-3-methyl-pyrrolidin-1-yl)-4-pyridyl]oxy]anilino]-7H-pyrrolo[2,3-d]pyrimidin-5-yl]-1-piperidyl]prop-2-en-1-one]
- GI50 [1]: 200 to 1000 nM
- GI50 [2]: 200 to 1000 nM

Structure (SMILES): C=CC(=O)N1CCC(c2c[nH]c3ncnc(Nc4ccc(Oc5ccnc(NCC(F)(F)F)c5)cc4F)c23)CC1 [Compound 58, 1-(4-(4-((2-fluoro-4-((2-((2,2,2-trifluoroethyl)amino)pyridin-4-yl)oxy)phenyl)amino)-7H-pyrrolo[2,3-d]pyrimidin-5-yl)piperidin-1-yl)prop-2-en-1-one]
- GI50 [1]: 50 to 200 nM
- GI50 [2]: 200 to 1000 nM

Structure (SMILES): C=CC(=O)N1CCC(c2c[nH]c3ncnc(Nc4ccc(Oc5ccnc(Nc6ncc[nH]6)c5)cc4F)c23)CC1 [Compound 59, 1-(4-(4-((4-((2-((1H-imidazol-2-yl)amino)pyridin-4-yl)oxy)-2-fluorophenyl)amino)-7H-pyrrolo[2,3-d]pyrimidin-5-yl)piperidin-1-yl)prop-2-en-1-one]
- GI50 [1]: 50 to 200 nM
- GI50 [2]: > 1000 nM

Structure (SMILES): C=CC(=O)N1CCC(c2c[nH]c3ncnc(Nc4ccc(OCc5cnn6c5CCCC6)c(Cl)c4)c23)CC1 [Compound 60, 1-(4-(4-((3-chloro-4-((4,5,6,7-tetrahydropyrazolo[1,5-a]pyridin-3-yl)methoxy)phenyl)amino)-7H-pyrrolo[2,3-d]pyrimidin-5-yl)piperidin-1-yl)prop-2-en-1-one]
- GI50 [1]: 200 to 1000 nM
- GI50 [2]: 50 to 200 nM

Structure (SMILES): C=CC(=O)N1CCC(c2c[nH]c3ncnc(Nc4ccc(Oc5ccnc(-n6cc(F)cn6)c5)cc4F)c23)CC1 [Compound 61, 1-(4-(4-((2-fluoro-4-((2-(4-fluoro-1H-pyrazol-1-yl)pyridin-4-yl)oxy)phenyl)amino)-7H-pyrrolo[2,3-d]pyrimidin-5-yl)piperidin-1-yl)prop-2-en-1-one]
- GI50 [1]: 200 to 1000 nM
- GI50 [2]: > 1000 nM

Structure (SMILES): C=CC(=O)N1CCC(c2c[nH]c3ncnc(Nc4ccc(OCc5nc(CNc6ncn(C)n6)cs5)c(Cl)c4)c23)CC1 [Compound 62, 1-(4-(4-((3-chloro-4-((4-(((1-methyl-1H-1,2,4-triazol-3-yl)amino)methyl)thiazol-2-yl)methoxy)phenyl)amino)-7H-pyrrolo[2,3-d]pyrimidin-5-yl)piperidin-1-yl)prop-2-en-1-one]
- GI50 [1]: 50 to 200 nM
- GI50 [2]: 200 to 1000 nM

Structure (SMILES): C=CC(=O)N1CCC(c2c[nH]c3ncnc(Nc4ccc(Oc5ccnc(N6C[C@H]7CCC[C@H]7C6)c5)cc4F)c23)CC1 [Compound 63, 1-(4-(4-((2-fluoro-4-((2-((3aR,6aS)-hexahydrocyclopenta[c]pyrrol-2(1H)-yl)pyridin-4-yl)oxy)phenyl)amino)-7H-pyrrolo[2,3-d]pyrimidin-5-yl)piperidin-1-yl)prop-2-en-1-one]
- GI50 [1]: 200 to 1000 nM
- GI50 [2]: 200 to 1000 nM

Structure (SMILES): C=CC(=O)N1CCC(c2c[nH]c3ncnc(Nc4ccc(Oc5ccnc(C6CCOCC6)c5)cc4F)c23)CC1 [Compound 64, 1-(4-(4-((2-fluoro-4-((2-(tetrahydro-2H-pyran-4-yl)pyridin-4-yl)oxy)phenyl)amino)-7H-pyrrolo[2,3-d]pyrimidin-5-yl)piperidin-1-yl)prop-2-en-1-one]
- GI50 [1]: 200 to 1000 nM
- GI50 [2]: > 1000 nM

Structure (SMILES): C=CC(=O)N1CCC(c2c[nH]c3ncnc(Nc4ccc(Oc5ccnc(Nc6cccnc6)c5)cc4F)c23)CC1 [Compound 65, 1-(4-(4-((2-fluoro-4-((2-(pyridin-3-ylamino)pyridin-4-yl)oxy)phenyl)amino)-7H-pyrrolo[2,3-d]pyrimidin-5-yl)piperidin-1-yl)prop-2-en-1-one]
- GI50 [1]: 200 to 1000 nM
- GI50 [2]: 200 to 1000 nM

Structure (SMILES): C=CC(=O)N1CCC(c2c[nH]c3ncnc(Nc4ccc(Oc5ccnc(-c6ccn(C)n6)c5)cc4F)c23)CC1 [Compound 66, 1-(4-(4-((2-fluoro-4-((2-(1-methyl-1H-pyrazol-3-yl)pyridin-4-yl)oxy)phenyl)amino)-7H-pyrrolo[2,3-d]pyrimidin-5-yl)piperidin-1-yl)prop-2-en-1-one]
- GI50 [1]: 50 to 200 nM
- GI50 [2]: 200 to 1000 nM

Structure (SMILES): C=CC(=O)N1CCC(c2c[nH]c3ncnc(Nc4ccc(OCc5nnc[nH]5)c(Cl)c4)c23)CC1 [Compound 67, 1-(4-(4-((4-((4H-1,2,4-triazol-3-yl)methoxy)-3-chlorophenyl)amino)-7H-pyrrolo[2,3-d]pyrimidin-5-yl)piperidin-1-yl)prop-2-en-1-one]
- GI50 [1]: 200 to 1000 nM
- GI50 [2]: 200 to 1000 nM

Structure (SMILES): C=CC(=O)N1CCC(c2c[nH]c3ncnc(Nc4ccc(OCc5cnc6n5CCCC6)c(Cl)c4)c23)CC1 [Compound 68, 1-(4-(4-((3-chloro-4-((5,6,7,8-tetrahydroimidazo[1,2-a]pyridin-3-yl)methoxy)phenyl)amino)-7H-pyrrolo[2,3-d]pyrimidin-5-yl)piperidin-1-yl)prop-2-en-1-one]
- GI50 [1]: < 50 nM
- GI50 [2]: < 50 nM

Structure (SMILES): C=CC(=O)N1CCC(c2c[nH]c3ncnc(Nc4ccc(CNc5ccccn5)cc4F)c23)CC1 [Compound 69, 1-(4-(4-((2-fluoro-4-((pyridin-2-ylamino)methyl)phenyl)amino)-7H-pyrrolo[2,3-d]pyrimidin-5-yl)piperidin-1-yl)prop-2-en-1-one]
- GI50 [1]: < 50 nM
- GI50 [2]: < 50 nM

Structure (SMILES): C=CC(=O)N1CCC(c2c[nH]c3ncnc(Nc4ccc(C(=O)Nc5ccccn5)cc4F)c23)CC1 [Compound 70, 4-((5-(1-acryloylpiperidin-4-yl)-7H-pyrrolo[2,3-d]pyrimidin-4-yl)amino)-3-fluoro-N-(pyridin-2-yl)benzamide]
- GI50 [1]: 50 to 200 nM
- GI50 [2]: < 50 nM

Structure (SMILES): C=CC(=O)N1CCC(c2c[nH]c3ncnc(Nc4ccc(OCc5cnccc5OC)c(Cl)c4)c23)CC1 [Compound 71, 1-(4-(4-((3-chloro-4-((4-methoxypyridin-3-yl)methoxy)phenyl)amino)-7H-pyrrolo[2,3-d]pyrimidin-5-yl)piperidin-1-yl)prop-2-en-1-one]
- GI50 [1]: < 50 nM
- GI50 [2]: < 50 nM

Structure (SMILES): C=CC(=O)N1CCC(c2c[nH]c3ncnc(Nc4ccc(Oc5ccnc(Nc6nccs6)c5)cc4F)c23)CC1 [Compound 72, 1-(4-(4-((2-fluoro-4-((2-(thiazol-2-ylamino)pyridin-4-yl)oxy)phenyl)amino)-7H-pyrrolo[2,3-d]pyrimidin-5-yl)piperidin-1-yl)prop-2-en-1-one]
- GI50 [1]: 50 to 200 nM
- GI50 [2]: 200 to 1000 nM

Structure (SMILES): C=CC(=O)N1CCC(c2c[nH]c3ncnc(Nc4ccc(OCc5ccc6cc[nH]c6n5)c(Cl)c4)c23)CC1 [Compound 73, 1-(4-(4-((4-((1H-pyrrolo[2,3-b]pyridin-6-yl)methoxy)-3-chlorophenyl)amino)-7H-pyrrolo[2,3-d]pyrimidin-5-yl)piperidin-1-yl)prop-2-en-1-one]
- GI50 [1]: < 50 nM
- GI50 [2]: < 50 nM
